Assay results taken from patent US20230416287A1, “Chemical Compounds” (GLAXOSMITHKLINE INTELLECTUAL PROPERTY DEVELOPMENT LIMITED, priority 2022, published 2023).
≈ marks a conversion by molar mass, not a printed value.

Experiments:
CAD kinetic solubility = format: physicochemical; conditions: phosphate buffered saline (PBS), aqueous buffer, PBS pH 7.4, 1 hour equilibration at room temperature, from DMSO stock, HPLC-CAD
Description: Kinetic solubility was measured using Charged Aerosol Detector (CAD). The aqueous kinetic solubility at pH 7.4 was determined by measuring the concentration of solute in solution after precipitation from DMSO stock solution. The DMSO stock solution was diluted 20-fold with phosphate buffered saline (PBS) pH 7.4 and the solubility of the compound was measured after 1 hour equilibration at room temperature by HPLC-CAD.

human Nav1.8 = human Nav1.8 (Homo sapiens, UniProt Q9Y5Y9); test: Nav1.8 inhibitory activity, QPatch 48 HTX electrophysiology in HEK293-Nav1.8 cells; format: cell-based; set-up: expressed in transfected cells; host or cells: HEK293; conditions: half inactivation state voltage protocol (V1/2), HEK293 cells expressing human Nav1.8, read-out: [Nav1.8] pIC50 (converted)
Description: Biological Assay 1: Nav1.8 Inhibitory Activity Human embryonic kidney 293 cells (HEK293) expressing human Nav1.8, human Navol and human TREK1 (HEK293-Nav1.8) were grown in T150 cell culture flasks at 37° C., 5% CO2 incubator. HEK293-Nav1.8 were passaged every 2-3 days when confluency reached 80-90% in T150 cell culture flasks.
Pharmacological assessment of compounds of the invention was performed using the QPatch 48 HTX electrophysiological platform. HEK293-Nav1.8 cells were prepared on the day of use by removing culture media, washing in DPBS, adding Accutase (2 mL to cover the surface, aspirate 1 mL then 1-2 minutes at 37° C.) followed by addition of CHO-SFM II to stop the enzyme digestion and in order to obtain a suspension of 3×10^6 cell/mL.
Compounds of the invention were prepared in an extracellular solution of the following composition: NaCl (145 mM), KCl (4 mM), CaCl2) (2 mM), MgCl (2 mM), HEPES (1 mM), Glucose (10 mM), pH 7.4 with NaOH Osmolality 300 mOsM/L. An intracellular solution of the following composition was used: CsF (115 mM), CsCl (20 mm), NaCl (5 mM), EGTA (10 mM), HEPES (10 mM), Sucrose (20 mM), pH 7.2 with CsOH Osmolality 310 mOsm/L.
Utilizing the voltage-clamp mode in the QPatch 48 HTX system a half inactivation state voltage protocol (V1/2) was used to determine pharmacological activity of compounds of the invention at Nav1.8 ion channels. A V1/2 protocol was utilized with the following voltage steps: a holding voltage of −100 mV was established followed by a 20 ms voltage step to 0 mV (P1), followed by an inactivating voltage step at −46 mV for 8 seconds, followed by a step to −100 mV for 20 ms, before a 20 ms step to 0 mV (P2), then returned to the holding voltage of −100 mV. This voltage protocol was repeated at a frequency of every 15 seconds, the current magnitude was quantified at the P2 step throughout the recording. Inhibition of the measured current amplitude with compounds of the invention was analyzed by fitting a 4-6 points dose-response curve allowing determination of the fifty percent inhibition concentration (IC50). P2 currents were normalized according to measurements made at baseline (Baseline, vehicle only), after compound (Input, at each test concentration), and after positive reference compound (FullResponse, to achieve complete block), fit to the following equation: […]
To assess current run-down over the course of the experiment vehicle-only wells were utilized and the normalized current with vehicle-only (n. IVEH) was determined. To correct the compound response for run-down, the currents were corrected according to the following formula:
[formula] • Compound inhibition was fitted to the following Hill Equation to estimate the half maximal inhibition concentration (IC50)
[formula] • where Y is the normalized run-down corrected inhibition relative to the vehicle control (equivalent to n. IRD_Correct), C the test compound concentration, IC50 the concentration of test compound to inhibit the sodium current by 50%, and h the Hill coefficient.

[1] = Rat IV/PO pharmacokinetic study; format: in vivo, Han Wistar rats
Description: An in vivo rat pharmacokinetic study was conducted to determine whether prodrug compounds of the invention are converted to the respective parent compound upon administration. The rat pharmacokinetic study was conducted with a crossover design on two study days with a one-day recovery period between each study day. Three male, dual catheterized (femoral vein and carotid artery) Han Wistar rats were used for the study. Each rat was also implanted with a gastric catheter for oral dose administration. Rats were dosed at 1 mg/kg by a 60-minute intravenous (IV) infusion (femoral vein cannula), then subsequently oral dosed at 2 mg/kg via the gastric cannula, with 48 hours between dosing sessions. Dose solutions of the compound of Example 4 were prepared in 20% Cavitron/5% DMSO/75% water (IV) and in 6% Cavitron/5% DMSO/89% water (PO) without pH adjustment. The dose solutions were filtered using a 0.22 μm filter. The pH of the final dosing solutions was 6.0.
During the intravenous study leg, blood samples were collected from the carotid artery catheter at target times of 15, 30, 60 (end of infusion), 65, 75, 90, 120, 240, 360, 480, 720, and 1440 minutes following the initiation of the intravenous infusion of the compound of Example 4. During the oral study leg, blood samples were collected prior to dosing and at target times of 15, 30, 60, 90, 120, 180, 240, 360, 480, 720, and 1440 minutes following oral administration. Blood samples (100 μL) were mixed with 100 μL phosphatase inhibitor, a 50 μL aliquot of the blood and inhibitor mixture was transferred to a non-heparinized tube and stored at approximately −80° C. until analyzed. The concentrations in the filtered dose solutions were confirmed by preparing stepwise dilutions first into 50% aqueous acetonitrile with 0.10% formic acid then into heparinized male Wistar Han blood: inhibitor to achieve determined nominal concentrations. Triplicate 50 μL aliquots were removed and were frozen and stored at approximately […] until analyzed by LC-MS/MS as described below. LC-MS/MS was used to quantify the compound of Example 4 and the corresponding parent compound of Example 4A in the biological samples generated in the above described in vivo study.
Samples were prepared by protein precipitation followed by LC-MS/MS analysis employing positive-mode ionization against a set of calibration standards for the compounds prepared in the same matrix. Pharmacokinetic parameters for the study were derived from the concentration versus time profiles. Key pharmacokinetic parameters such as AUC0-∞. (extrapolated area under the blood concentration-time curve), AUC0-t (area under the blood concentration-time curve to the last time point with quantifiable drug), Cmax (maximum concentration), Tmax (time Cmax is achieved), CL (systemic blood clearance), Vdss (steady-state volume of distribution), MRT (mean residence time), and t1/2 (half-life) were determined for the compound of Example 4. The key pharmacokinetic parameters such as AUC0-∞, AUC0-t, Cmax, Tmax, MRT, and t1/2 (half-life) were determined for the parent compound Example 4A. Descriptive statistical data of pharmacokinetic parameters were calculated, including the mean and standard deviation (SD) using Microsoft Excel. The data are shown below in Tables 5A and 5B. Data are reported as mean±SD (N=3).

[2] = male, Han Wistar, prodrug Example 4 in blood, intravenous infusion of Example 4, 1 mg/kg, mean ± SD, N=3
[3] = male, Han Wistar, prodrug Example 4 in blood, intravenous infusion, 1 mg/kg, mean ± SD, N=3

human Nav1.8, sequence (Q9Y5Y9 whole entry): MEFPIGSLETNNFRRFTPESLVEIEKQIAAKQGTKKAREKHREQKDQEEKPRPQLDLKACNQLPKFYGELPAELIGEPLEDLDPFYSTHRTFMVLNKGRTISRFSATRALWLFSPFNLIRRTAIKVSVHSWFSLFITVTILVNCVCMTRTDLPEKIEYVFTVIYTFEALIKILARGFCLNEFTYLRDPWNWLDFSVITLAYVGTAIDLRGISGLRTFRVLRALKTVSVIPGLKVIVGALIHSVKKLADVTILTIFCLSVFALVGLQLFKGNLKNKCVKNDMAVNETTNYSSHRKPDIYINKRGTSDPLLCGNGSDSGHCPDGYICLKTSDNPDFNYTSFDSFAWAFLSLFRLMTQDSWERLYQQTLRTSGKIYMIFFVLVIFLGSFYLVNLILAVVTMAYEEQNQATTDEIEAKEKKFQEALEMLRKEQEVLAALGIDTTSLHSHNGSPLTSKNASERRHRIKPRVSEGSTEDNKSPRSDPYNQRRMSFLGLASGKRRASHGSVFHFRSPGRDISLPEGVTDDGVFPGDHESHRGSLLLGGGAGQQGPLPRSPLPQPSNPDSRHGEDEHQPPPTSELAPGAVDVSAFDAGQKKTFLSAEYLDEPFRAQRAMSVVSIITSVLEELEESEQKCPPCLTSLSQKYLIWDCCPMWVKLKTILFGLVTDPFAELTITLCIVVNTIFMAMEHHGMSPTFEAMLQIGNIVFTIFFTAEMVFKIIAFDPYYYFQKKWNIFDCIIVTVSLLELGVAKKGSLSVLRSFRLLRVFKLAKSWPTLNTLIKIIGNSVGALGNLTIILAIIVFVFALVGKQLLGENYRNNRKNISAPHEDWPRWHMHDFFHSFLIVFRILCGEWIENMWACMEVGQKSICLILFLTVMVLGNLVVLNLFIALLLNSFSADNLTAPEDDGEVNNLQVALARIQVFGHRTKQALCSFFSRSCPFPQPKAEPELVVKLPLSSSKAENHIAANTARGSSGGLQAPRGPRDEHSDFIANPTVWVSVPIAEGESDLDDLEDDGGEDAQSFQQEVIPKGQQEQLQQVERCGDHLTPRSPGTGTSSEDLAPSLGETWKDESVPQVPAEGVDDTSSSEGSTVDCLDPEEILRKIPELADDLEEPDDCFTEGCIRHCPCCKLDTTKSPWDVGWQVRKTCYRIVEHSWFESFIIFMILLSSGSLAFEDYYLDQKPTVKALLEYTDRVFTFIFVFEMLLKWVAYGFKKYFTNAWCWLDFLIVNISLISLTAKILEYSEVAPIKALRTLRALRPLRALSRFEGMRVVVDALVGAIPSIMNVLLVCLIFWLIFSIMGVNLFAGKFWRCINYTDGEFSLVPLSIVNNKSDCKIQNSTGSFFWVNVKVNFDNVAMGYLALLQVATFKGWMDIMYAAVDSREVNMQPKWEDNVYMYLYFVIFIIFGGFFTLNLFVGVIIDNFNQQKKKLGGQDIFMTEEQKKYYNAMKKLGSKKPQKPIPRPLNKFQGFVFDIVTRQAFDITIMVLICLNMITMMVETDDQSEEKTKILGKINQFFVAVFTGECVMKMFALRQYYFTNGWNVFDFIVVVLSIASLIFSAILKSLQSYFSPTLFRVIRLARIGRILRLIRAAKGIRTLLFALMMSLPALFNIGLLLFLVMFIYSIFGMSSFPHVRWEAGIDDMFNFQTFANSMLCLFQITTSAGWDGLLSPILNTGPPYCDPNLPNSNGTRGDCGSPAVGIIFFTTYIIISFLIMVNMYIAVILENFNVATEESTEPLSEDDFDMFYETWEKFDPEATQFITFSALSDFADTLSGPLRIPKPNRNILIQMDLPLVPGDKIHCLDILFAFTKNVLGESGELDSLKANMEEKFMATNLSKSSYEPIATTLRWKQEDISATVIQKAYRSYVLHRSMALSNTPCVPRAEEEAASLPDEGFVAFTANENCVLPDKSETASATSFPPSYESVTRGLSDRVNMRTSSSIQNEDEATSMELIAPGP

Compound	solubility at 1 h (CAD kinetic solubility) [µg/mL]	IC50 (human Nav1.8) [nM]	other results
Cc1cc(F)ccc1N1CN(c2ccc(=O)n(COP(=O)(O)O)c2C)C(=O)c2cc(C(F)(F)F)c(F)cc21 [Example 1, (5-(7-fluoro-1-(4-fluoro-2-methylphenyl)-4-oxo-6-(trifluoromethyl)-1,4-dihydroquinazolin-3(2H)-yl)-6-methyl-2-oxopyridin-1(2H)-yl)methyl dihydrogen phosphate]	≥ 192	31.6	–
Cc1cc(F)ccc1N1CN(c2ccc(=O)[nH]c2C)C(=O)c2cc(C(F)(F)F)c(F)cc21 [Example 1A, 7-fluoro-1-(4-fluoro-2-methylphenyl)-3-(2-methyl-6-oxo-1,6-dihydropyridin-3-yl)-6-(trifluoromethyl)-2,3-dihydroquinazolin-4(1H)-one]	32 (≈ 71.2 µM)	10	–
Cc1cc(OC(F)(F)F)ccc1N1CN(c2cc(C)c(=O)n(COP(=O)(O)O)c2C)C(=O)c2cc(C(F)(F)F)cnc21 [Example 2, (3,6-dimethyl-5-(1-(2-methyl-4-(trifluoromethoxy)phenyl)-4-oxo-6-(trifluoromethyl)-1,4-dihydropyrido[2,3-d]pyrimidin-3(2H)-yl)-2-oxopyridin-1(2H)-yl)methyl dihydrogen phosphate]	≥ 217	501	–
Cc1cc(OC(F)(F)F)ccc1N1CN(c2cc(C)c(=O)[nH]c2C)C(=O)c2cc(C(F)(F)F)cnc21 [Example 2A, 3-(2,5-dimethyl-6-oxo-1,6-dihydropyridin-3-yl)-1-(2-methyl-4-(trifluoromethoxy)phenyl)-6-(trifluoromethyl)-2,3-dihydropyrido[2,3-d]pyrimidin-4(1H)-one]	56 (≈ 109 µM)	20	–
Cc1c(N2CN(c3ccc(=O)n(COP(=O)(O)O)c3C)C(=O)c3cc(C(F)(F)F)ncc32)ccc(F)c1F [Example 3, (5-(1-(3,4-Difluoro-2-methylphenyl)-4-oxo-6-(trifluoromethyl)-1,4-dihydropyrido[3,4-d]pyrimidin-3(2H)-yl)-6-methyl-2-oxopyridin-1(2H)-yl)methyl dihydrogen phosphate]	224	1260	–
Cc1[nH]c(=O)ccc1N1CN(c2ccc(F)c(F)c2C)c2cnc(C(F)(F)F)cc2C1=O [Example 3A, 1-(3,4-difluoro-2-methylphenyl)-3-(2-methyl-6-oxo-1,6-dihydropyridin-3-yl)-6-(trifluoromethyl)-2,3-dihydropyrido[3,4-d]pyrimidin-4(1H)-one]	≥ 210	100	–
Cc1c(N2CN(c3ccc(=O)n(COP(=O)(O)O)c3C)C(=O)c3cc(F)c(Cl)cc32)ccc(F)c1F [Example 4, (5-(7-chloro-1-(3,4-difluoro-2-methylphenyl)-6-fluoro-4-oxo-1,4-dihydroquinazolin-3(2H)-yl)-6-methyl-2-oxopyridin-1(2H)-yl)methyl dihydrogen phosphate]	157	31.6	Vd ([1]; male, Han Wistar, blood, prodrug Example 4, intravenous infusion, 1 mg/kg, mean ± SD, N=3, read-out: Vdss): 0.687 ± 0.284 L/kg; Cmax ([1]; male, Han Wistar, prodrug Example 4 in blood, 60-minute intravenous infusion of Example 4, 1 mg/kg (Table 5A: 1.2 ± 0.1 mg/kg), mean ± SD, N=3): 238 ± 45 ng/mL; MRT [1, 2]: 6 ± 1.2 min; half-life [1, 2]: 40.2 ± 17.4 min; AUC(0-inf) [1, 3]: 197 ± 44 ng·h/mL; AUC(0-t) [1, 3]: 197 ± 284 ng·h/mL; clearance ([1]; male, Han Wistar, systemic blood clearance of prodrug Example 4, intravenous infusion, 1 mg/kg, mean ± SD, N=3): 110 ± 33 mL/min/kg; quantifiable concentrations following oral administration ([1]; prodrug Example 4 in blood, oral via gastric cannula, 2 mg/kg (Table 5A: 3.0 ± 0.0 mg/kg)): There were no
Cc1cc(F)ccc1N1CN(c2ccc(=O)n(COP(=O)(O)O)c2C)C(=O)c2cc(F)c(Cl)cc21 [Example 5, (5-(7-Chloro-6-fluoro-1-(4-fluoro-2-methylphenyl)-4-oxo-1,4-dihydroquinazolin-3(2H)-yl)-6-methyl-2-oxopyridin-1(2H)-yl)methyl dihydrogen phosphate]	135	63.1	–
